Data on one compound can be found in patent publication US20070021355A1, “Antidepressants or foods and beverage for antidepression” (priority 2003, published 2007).

What all share (type): in vivo
Test [1] relates to 5-HT and 5-HIAA in the hypothalamus of mice. The experiment in a line: Action on the amount of amine in the brain (5-HT and 5-HIAA in the hypothalamus). The conditions noted are these: 100 mg/kg i.p. The protocol: Male ddY mice (4 weeks old) were intraperitoneally administered Compound 1 (100 mg/kg) (Compound 1-administered group) and their brains were excised 30 and 60 minutes after the administration to measure the amounts of serotonin (5-HT) and its metabolite 5-hydroxyindole-3-acetic acid (5-HIAA) in the hypothalamus. Compound 1 was administered after being dissolved in a physiological saline. Separately, another group of mice was administered only a solvent (solvent-administered group) and the amounts of 5-HT and 5-HIAA were measured in the same manner.

Test [2] relates to mice fed with a vitamin B deficient food. Put plainly: Action on depressive behavior induced by vitamin B deficient food (swimming patterns). The protocol:
Male ddY mice (3 weeks old) were fed with a feed deficient in vitamin B1, vitamin B12 and folic acid for 8 days and then divided into two groups: one to which Compound 1 (100 mg/kg) was intraperitoneally administered once per day for 11 days (vitamin deficient food+Compound 1-administered group) and the other to which only a solvent was administered (vitamin deficient food+solvent-administered group). Compound 1 was administered after being dissolved in a physiological saline. Two hours after the last administration, the mice were put in a plastic cylindrical tub (diameter: 18 cm, height: 40 cm, water depth: 15 cm, water temperature: ca. 23° C.), followed by measurement of the time of their struggle, swimming and immobility in 10 minutes. Separately, another group of mice fed with a normal food was tested.

The test system of test [3] is reserpine-administered mice. Put plainly: Action on reserpine-induced drop in the quantity of spontaneous motion. The procedure: Male ddY mice (4 weeks old) were subcutaneously administered reserpine (2 mg/kg) (Apoplon injection 1 mg, product of Daiichi Pharmaceutical Co., Ltd.). These mice were divided into two groups: one to which Compound 1 (100 mg/kg) was intraperitoneally administered once per day for four days (reserpine+Compound 1-administered group) and the other to which only a solvent was administered (reserpine+solvent-administered group). Reserpine and Compound 1 were administered after being dissolved in a physiological saline. After the last administration, the mice were immediately put into breeding cages equipped with an infrared beam sensor (NS-AS01, Neuroscience, Inc.). After the last administration, the quantity of spontaneous motion in each 30-minute period was measured for 360 minutes with an infrared beam sensor device for measuring the quantity of spontaneous motion (AB system, Neuroscience, Inc.) and the measured values were summed up on a specific purpose computer via an interface (B060CT8H06, Neuroscience, Inc). Separately, another group of mice which was administered no reserpine was tested.

The subject of test [4] is reserpine-administered mice. The experiment in a line: Action on reserpine-induced temperature drop (body temperature). The conditions noted are these: for Body temperature: male ddY mice, reserpine 2 mg/kg s.c., 100 mg/kg i.p. once per day for two days, mean ± standard error. The procedure:
(§1) Male ddY mice (4 weeks old) were subcutaneously administered reserpine (2 mg/kg) (Apoplon injection 1 mg, product of Daiichi Pharmaceutical Co., Ltd.). These mice were divided into two groups: one to which Compound 1 (100 mg/kg) was intraperitoneally administered once per day for two days (reserpine+Compound 1-administered group) and the other to which only a solvent was administered (reserpine+solvent-administered group). Reserpine and Compound 1 were administered after being dissolved in a physiological saline. The body temperature of the mice was measured 0.5, 1, 3 and 6 hours after the last administration. Separately, a solvent was administered to another group of mice without reserpine administration.

Test [5] deals with reserpine-administered mice. The experiment in a line: Action on reserpine-induced blepharoptosis. The conditions noted are these: for Blepharoptosis score: score 1 completely opened to 5 completely closed, reserpine 2 mg/kg s.c., 100 mg/kg i.p. once per day for two days, mean ± standard error. The procedure:
as §1, with “The level” for “The body temperature”, “of blepharoptosis” for “of the mice”, “was scored” for “was measured”, “last administration (score 1: completely opened, score 2: ¼ closed, score 3: ½ closed, score 4: ¾ closed, and score 5: completely closed).” for “last administration.”

The mark [6] stands for this setting: male ddY mice, brains excised 30 and 60 minutes after administration, mean ± standard error.
Where [7] appears, read: vitamin B deficient food, 100 mg/kg i.p. once per day for 11 days, two hours after last administration, time in 10 minutes, mean ± standard error.
Where [8] appears, read: 30 minute after last administration.
Where [9] appears, read: 60 minute after last administration.
[10] abbreviates: 180 minute after last administration.
The mark [11] stands for this setting: 360 minute after last administration.

As for `NC(Cc1c([C@@H]2O[C@@H](CO)[C@H](O)[C@@H](O)[C@H]2O)[nH]c2ccccc12)C(=O)O` (stereo partly drawn) [Compound 1, 2-amino-3-[2-(α-L-mannopyranosyl]indol-3-yl]propionic acid], in test [1], the “Effect on contents of 5-HT and 5-HIAA in the hypothalamus (in words)” value is “increased the contents of 5-HT and 5-HIAA”. In addition, the “Content of 5-HIAA in the hypothalamus” value in test [1] (setting [6]) came to 374.1 ± 26.7 ng/g wet weight. Besides, the “Content of 5-HT in the hypothalamus” value in test [1] (setting [6]) is 815.0 ± 39.1 ng/g wet weight. For the same compound, the “Effect on struggle, swimming and immobility time of mice on vitamin B deficient food (in words)” value in test [2] (100 mg/kg i.p.) was “improved these actions”. For the same compound, the “Swimming pattern: Immobility” value in test [2] (setting [7]) was “***35.6 ± 15.4 second”. For the same compound, in test [2] (setting [7]), the “Swimming pattern: Struggle” value was “***2.4 ± 2.4 second”. Further, the “Swimming pattern: Swimming” value in test [2] (setting [7]) is recorded as “***562.0 ± 14.2 second”. Besides, the “Effect on reserpine-induced drop in quantity of spontaneous motion (in words)” value in test [3] (100 mg/kg i.p.) is “showed the action to increase the quantity of spontaneous motion”. Moreover, the “Quantity of spontaneous motion in 360 minutes” value in test [3] (reserpine 2 mg/kg s.c., 100 mg/kg i.p. once per day for four days, infrared beam sensor, mean ± standard error) stood at 2464.2 ± 594.6 count. Besides, in test [4] (100 mg/kg i.p.), the “Effect on body temperature of reserpine-administered mice (in words)” value is given as “significantly raised the body temperature”. Besides, the Body temperature result was “***36.1 ± 0.2 °C” in test [4] (setting [8]), “** 35.4 ± 0.1 °C” in test [4] (setting [9]), “** 35.2 ± 0.3 °C” in test [4] (setting [10]) and “** 34.9 ± 0.4 °C” in test [4] (setting [11]). Moreover, the “Effect on reserpine-induced blepharoptosis (in words)” value in test [5] (100 mg/kg i.p.) was “showed the action to improve the condition”. The Blepharoptosis score result was “***3.0 ± 0.4” in test [5] (setting [8]), “** 3.1 ± 0.3” in test [5] (setting [9]), “** 3.3 ± 0.3” in test [5] (setting [10]) and “** 3.3 ± 0.2” in test [5] (setting [11]).
